Assay results reported in US11066400B2, “Compounds for the treatment of cancer” (Hoffmann-La Roche Inc., priority 2015, dated 2021).

Assays:
[1] = system: FoxM1_ΔVIIa / FoxM1_FL mRNA (FoxM1 gene splicing); test: Monitoring expression levels of FoxM1 splice variants using real-time quantitative PCR; format: cell-based; conditions: Fibroblast; human fibroblasts, 24 hours, RT-qPCR, Hill fit of concentration dependence curves
Protocol: Human fibroblasts were plated at 10,000 cells/well in 200 μl DMEM with GlutaMAX and 10% FBS in 96-well plates in a cell culture incubator (37° C., 5% CO2, 100% relative humidity). Cells were then treated with compounds at different concentrations (0.1-300 nM, each in 0.5% DMSO) in triplicate for 24 hours. RNA extraction was performed as per instructions mentioned in the Ambion® Cells-to-CT™ Kits from Applied Biosystems®. RNA samples were frozen at −20° C. until further analysis. Relative expression levels of full-length FoxM1 (FoxM1_FL) or FoxM1 lacking exon VIIa (FoxM1_ΔVIIa) with GAPDH for internal control, was measured using one-step multiplex reverse transcription-polymerase chain reaction (RT-PCR). TaqMan® FAM probes were used for relative quantitation of FoxM1_FL or FoxM1_ΔVIIa expression levels and TaqMan® VIC probes were used for relative quantitation of human GAPDH levels. The fidelity of the amplification methods was determined using the ΔΔCt relative quantification method for quantitative PCR.
To investigate an effect on splicing of FoxM1, human fibroblasts were treated for 24 hours with compounds of the present invention in dose response, and analysed by RT-qPCR for presence of mRNA including (FoxM1_FL) or excluding the exon VIIa (FoxM1_ΔVIIa). […] Correspondingly, the mRNAs for FoxM1_ΔVIIa declined. […] The resulting concentration dependence curves of the FoxM1_ΔVIIa splice variant were fitted to a Hill binding equation to yield IC50 values that are described in Table 1. […] Taken together, the data underline a splicing modifying activity in the FoxM1 gene.

SMN protein = conditions: taken from Activity Tables of WO 2014/028459, WO 2014/116845, WO 2015/017589; cited from earlier work

SMILES	IC50 [1]	EC50 (SMN protein)
CN(c1ccc(-c2ccc(C#N)cc2O)nn1)C1CC(C)(C)NC(C)(C)C1 [Compound 1, 3-hydroxy-4-(6-(methyl(2,2,6,6-tetramethylpiperidin-4-yl)amino)pyridazin-3-yl)benzonitrile]	41 nM	
CN(c1ccc(-c2ccc(-c3cn[nH]c3)cc2O)nn1)C1CC(C)(C)NC(C)(C)C1 [Compound 2, 5-(1H-pyrazol-4-yl)-2-(6-(methyl(2,2,6,6-tetramethylpiperidin-4-yl)amino)pyridazin-3-yl)phenol]	0.9 nM	
CN(c1ccc(-c2ccc(-c3cnn(C)c3)cc2O)nn1)C1CC(C)(C)NC(C)(C)C1 [Compound 3, 2-(6-(methyl-(2,2,6,6-tetramethylpiperidin-4-yl)amino)pyridazin-3-yl)-5-(1-methyl-1H-pyrazol-4-yl)phenol]	9.8 nM	
CC1(C)CC(Oc2ccc(-c3ccc(-c4cn[nH]c4)cc3O)nn2)CC(C)(C)N1 [Compound 4]	17 nM	
CC1(C)CC(Oc2ccc(-c3ccc(-n4cccn4)cc3O)nn2)CC(C)(C)N1 [Compound 5]	278 nM	
CN(c1ccc(-c2ccc(-c3ccc(=O)n(C)c3)cc2O)nn1)C1CC(C)(C)NC(C)(C)C1 [Compound 7, 5-(3-hydroxy-4-(6-(methyl-(2,2,6,6-tetramethylpiperidin-4-yl)amino)pyridazin-3-yl)phenyl)-1-methylpyridin-2(1H)-one]	167 nM	
CN(c1ccc(-c2cc3ccccc3cc2O)nn1)C1CC(C)(C)NC(C)(C)C1 [Compound 8, 3-(6-(methyl(2,2,6,6-tetramethylpiperidin-4-yl)amino)pyridazin-3-yl)naphthalen-2-ol]	3.7 nM	
CN(c1ccc(-c2cc3ccc(O)cc3cc2O)nn1)C1CC(C)(C)NC(C)(C)C1 [Compound 9, 3-(6-(methyl-(2,2,6,6-tetramethylpiperidin-4-yl)amino)pyridazin-3-yl)naphthalene-2,7-diol]	0.7 nM	
COc1ccc2cc(-c3ccc(N(C)C4CC(C)(C)NC(C)(C)C4)nn3)c(O)cc2c1 [Compound 11, 7-methoxy-3-(6-(methyl(2,2,6,6-tetramethylpiperidin-4-yl)amino)pyridazin-3-yl)naphthalen-2-ol]	0.8 nM	
CN(c1nnc(-c2ccc(-c3cn[nH]c3)cc2Cl)s1)C1CC(C)(C)NC(C)(C)C1 [Compound 12, 5-(2-Chloro-4-(1H-pyrazol-4-yl)phenyl)-N-methyl-N-(2,2,6,6-tetramethylpiperidin-4-yl)-1,3,4-thiadiazol-2-amine]	265 nM	34 nM
CN(c1nnc(-c2ccc(-c3ccn(C)c(=O)c3)cc2Cl)s1)C1CC(C)(C)NC(C)(C)C1 [Compound 13, 4-(3-chloro-4-(5-(methyl(2,2,6,6-tetramethylpiperidin-4-yl)amino)-1,3,4-thiadiazol-2-yl)phenyl)-1-methylpyridin-2(1H)-one]	345 nM	50 nM
CN(c1nnc(-c2cc(F)c(-c3ccn[nH]3)cc2F)s1)C1CC(C)(C)NC(C)(C)C1 [Compound 14, 5-(2,5-difluoro-4-(1H-pyrazol-5-yl)phenyl)-N-methyl-N-(2,2,6,6-tetramethylpiperidin-4-yl)-1,3,4-thiadiazol-2-amine]	144 nM	85 nM
